Assay results taken from ChEMBL document CHEMBL1122374 (J Med Chem, 1983).

What was measured:
[1] = molecular target: T1, Adenosine deaminase (Bos taurus, UniProt P56658); assay: In vitro inhibition of adenosine deaminase in calf intestinal mucosa; format: tissue-based
T1 sequence (P56658 whole entry): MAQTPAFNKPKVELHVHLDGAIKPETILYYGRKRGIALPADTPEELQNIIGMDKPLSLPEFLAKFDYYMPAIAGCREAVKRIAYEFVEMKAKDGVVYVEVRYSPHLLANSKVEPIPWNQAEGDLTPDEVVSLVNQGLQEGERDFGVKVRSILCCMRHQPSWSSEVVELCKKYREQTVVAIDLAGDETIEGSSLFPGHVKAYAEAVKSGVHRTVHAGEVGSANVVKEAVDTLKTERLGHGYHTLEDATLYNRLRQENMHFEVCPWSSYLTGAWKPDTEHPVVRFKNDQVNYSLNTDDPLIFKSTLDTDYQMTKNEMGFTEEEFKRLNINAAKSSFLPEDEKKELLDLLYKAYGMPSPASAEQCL

[2] = molecular target: T2, Adenosine deaminase (Homo sapiens, UniProt P00813); assay: The compound was tested in vitro for inhibition of human erythrocytic adenosine deaminase
T2 sequence (P00813 whole entry): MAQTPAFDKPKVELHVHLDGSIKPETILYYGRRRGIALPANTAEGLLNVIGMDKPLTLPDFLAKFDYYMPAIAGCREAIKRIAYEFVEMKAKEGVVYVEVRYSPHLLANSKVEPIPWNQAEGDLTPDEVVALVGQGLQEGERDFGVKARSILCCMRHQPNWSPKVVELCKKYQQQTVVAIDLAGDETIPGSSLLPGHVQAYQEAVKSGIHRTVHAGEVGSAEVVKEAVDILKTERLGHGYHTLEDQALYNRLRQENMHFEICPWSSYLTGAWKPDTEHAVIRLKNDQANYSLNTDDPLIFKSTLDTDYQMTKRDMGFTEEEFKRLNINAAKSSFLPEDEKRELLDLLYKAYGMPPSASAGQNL

Compound	Ki [1]	Ki [2]
CC1=NC[C@@H](O)c2ncn([C@H]3C[C@H](O)[C@@H](CO)O3)c2N1	16 nM	
OCCOCn1cnc2c1NC=NCC2O (stereo not drawn)	98 nM	
OC[C@H]1O[C@@H](n2cnc3c2N=CNC[C@H]3O)[C@H](O)[C@@H]1O [COFORMYCIN]		0.01 nM
